# Biological target: T1, K103NNY181C mutant reverse transcriptase (Human immunodeficiency virus type 1 group M subtype B, UniProt P04585, K690N/Y768C)
# T1 construct: mutations that occur in the reverse transcriptase segment of the pol gene
# Assay: Reverse transcriptase enzymatic assay (PicoGreen), K103N/Y181C mutant RT
# Type: biochemical, HIV-1
# Details: IC50 mut (nM), mutant (K103N/Y181C) reverse transcriptase, enzymatic assay of Example 24
# Method in brief: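 PicoGreen fluorescence (ex 485, em 520 nm) quantified product after EDTA stop. Reaction ran 50 min at 37 °C in pH 7.8 Tris/HCl buffer, 1% DMSO, with poly rC/dG15 template-primer (45/4.5 nM), 3.6 μM dGTP, 2.5 nM enzyme; inhibitor 10 μM–0.508 nM final after 15 min room-temperature pre-incubation.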
row,SMILES,IC50 [nM]
1,CC(C)(C)c1ccc(-n2nnnc2SCC(=O)Nc2ccc(NC(=O)Cc3ccccc3Cl)cc2Cl)c(Cl)c1 [Compound 7035],100
2,CC(C)(C)c1ccc(-n2nnnc2SCC(=O)Nc2ccc(NC(=O)Cc3cccc[n+]3[O-])cc2Cl)c(Cl)c1 [Compound 7047],43.5

# Same assay, conditions: IC50 mut, K103N/Y181C mutant reverse transcriptase, enzymatic assay of Example 24
row,SMILES,IC50 [nM]
1,C=C(C)C#Cc1ccc(NC(=O)CSc2nnnn2-c2ccc(C3CC3)cc2Cl)c(Cl)c1 [Compound 4112],54
2,CN(C)C(=O)COC(C)(C)C#Cc1ccc(NC(=O)CSc2nnnn2-c2ccc(C(C)(C)C)cc2Cl)c(Cl)c1 [Compound 4049],30
3,CC(C)(C#Cc1ccc(NC(=O)CSc2nnnn2-c2ccc(C3CC3)cc2Cl)c(Cl)c1)OCCNC1CCC1 [Compound 4118],89.5
4,CC(C)(C#Cc1ccc(NC(=O)CSc2nnnn2-c2ccc(C(C)(C)C)cc2Cl)c(Cl)c1)COC(N)=O [Compound 4033],36
5,CC(C)(N)C#Cc1ccc(NC(=O)CSc2nnnn2-c2cc(C(F)(F)F)cc(C3CC3)c2Cl)c(Cl)c1F [Compound 4237],91.5
6,CC(C)(C#Cc1ccc(NC(=O)CSc2nnnn2-c2ccc(C3CC3)cc2Cl)c(Cl)c1)NC(=O)CNc1cc[n+]([O-])cc1 [Compound 4193],29
7,CC(C)(C)c1ccc(-n2nnnc2SCC(=O)Nc2ccc(C#CCOC(N)=O)cc2Cl)c(Cl)c1 [Compound 4034],8.9
8,CC(C)(C#Cc1ccc(NC(=O)CSc2nnnn2-c2ccc(C(C)(C)C)cc2Cl)c(Cl)c1)OCC(=O)Nc1ccccc1 [Compound 4044],296
9,O=C(CSc1nnnn1-c1ccc(C2CC2)cc1Cl)Nc1ccc(C#CC2(CN3CCC(O)CC3)CC2)cc1Cl [Compound 4096],37
10,CC(C)(C#Cc1ccc(NC(=O)CSc2nnnn2-c2ccc(CC3CC3)cc2Cl)c(Cl)c1)NC(=O)c1cc[n+]([O-])cc1 [Compound 4247],19
11,CCC(C#Cc1ccc(NC(=O)CSc2nnnn2-c2ccc(C3CC3)cc2Cl)c(Cl)c1)(CC)NC(=O)OC(C)(C)C [Compound 4066],732
12,CC(C)(C#Cc1ccc(NC(=O)CSc2nnnn2-c2cc(C(C)(C)C)ccc2Cl)c(Cl)c1)NC(=O)CN1CCNCC1 [Compound 4202],106
13,CN(O)C(=O)COC(C)(C)C#Cc1ccc(NC(=O)CSc2nnnn2-c2ccc(C(C)(C)C)cc2Cl)c(Cl)c1 [Compound 4050],66
14,C=CC#Cc1ccc(NC(=O)CSc2nnnn2-c2ccc(C3CC3)cc2Cl)c(Cl)c1 [Compound 4133],53.5

# Same assay, conditions: IC50 mut, mutant reverse transcriptase, enzymatic assay of Example 24
row,SMILES,IC50 [nM]
1,CC(C)(C)c1ccc(-n2nnnc2SCC(=O)Nc2ccc(OCC(=O)NCCc3ccc(O)c(O)c3)cc2Cl)c(Cl)c1 [Compound 5021],181
2,CN(C)c1ccc(NC(=O)c2ccc(NC(=O)CSc3nnnn3-c3ccc(C(C)(C)C)cc3Cl)c(Cl)c2)cc1 [Compound 6012],47
3,COC(=O)CN(C)CCOc1ccc(-c2ccc(NC(=O)CSc3nnnn3-c3ccc(C(C)(C)C)cc3Cl)c(Cl)c2)cc1 [Compound 2043],32
4,CNS(=O)(=O)c1ccc(NC(=O)CSc2nnnn2-c2ccc(C(C)(C)C)cc2Cl)c(Cl)c1 [Compound 3021],63
5,O=C(CSc1nnnn1-c1ccc(C2CC2)cc1Cl)Nc1ccc(-c2ccc(OCCN3CCCCC3)c(Cl)c2)cc1Cl [Compound 3038],167
6,CC(C)(C)c1ccc(-n2nnnc2SCC(=O)Nc2ccc(C(=O)Nc3ccc(C(=O)O)cc3)cc2Cl)c(Cl)c1 [Compound 6014],34
7,Cc1cc(OCC(=O)O)ccc1-c1ccc(NC(=O)CSc2nnnn2-c2ccc(C(C)(C)C)cc2Cl)c(Cl)c1 [Compound 3011],340
8,O=C(CSc1nnnn1-c1ccc(C2CC2)cc1Cl)Nc1ccc(C(=O)NCCc2cc[n+]([O-])cc2)cc1Cl [Compound 6035],39
9,CC(C)(C)c1ccc(-n2nnnc2SCC(=O)Nc2ccc(C(=O)NC3CC3)cc2Cl)c(Cl)c1 [Compound 6002],31
10,CC(C)(C)c1ccc(-n2nnnc2SCC(=O)Nc2ccc(OCC(=O)NCc3ccc(O)c(O)c3)cc2Cl)c(Cl)c1 [Compound 5019],78
11,Cc1ccc(-n2nnnc2SCC(=O)Nc2ccc(-c3ccc(CC(N)=O)cc3)cc2Cl)c(Cl)c1 [Compound 2012],15

# Source: patent publication US7517998B2, “Non nucleoside reverse transcriptase inhibitors” (priority 2004, dated 2009)
